Values joined by “and” are separate entries in the source; they are usually repeats but may differ in a detail not shown here. Identical values can stand only once. Where a SMILES comes first, the peptide text is derived from it.

We go through 1 molecule from article PMC12914960, “Repurposing a detrimental antibody epitope as targeted therapeutics for sepsis and rheumatoid arthritis” (Military Medical Research, 2026).

In experiment [1] the target is T1, Recombinant human HMGB1 (Homo sapiens, UniProt P09429).
T1 construct: made in house; host or cells: E. coli BL21 (DE3) pLysS (given for the rat HMGB1 preparation)
T1 sequence (P09429 whole entry, looked up): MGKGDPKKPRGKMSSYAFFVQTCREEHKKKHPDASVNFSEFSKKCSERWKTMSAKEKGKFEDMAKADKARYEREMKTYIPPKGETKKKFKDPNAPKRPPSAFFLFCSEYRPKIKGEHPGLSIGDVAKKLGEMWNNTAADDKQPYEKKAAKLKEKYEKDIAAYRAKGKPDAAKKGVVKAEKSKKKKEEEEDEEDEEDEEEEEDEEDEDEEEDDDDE
The experiment can be described thus: SPR binding to immobilized HMGB1 (OpenSPR). The note with it: 1:1 model. On the procedure:
Binding kinetics between HMGB1 and P2-1 were measured via Nicoya Life Science gold nanoparticle-based OpenSPR technology (Kitchener, ON, Canada) as previously described. Recombinant human HMGB1 was immobilized onto a carboxyl sensor chip, and the P2-1 peptide was flowed over the immobilized HMGB1 at various concentrations in HEPES-buffered saline with poloxamer (HBS-P buffer, GE Healthcare, Chicago, IL, USA). The response units were recorded over time, and binding affinity was estimated as the equilibrium dissociation constant KD using Trace Drawer Kinetic Data Analysis v.1.6.1 (Nicoya Life Science). Given the 1:1 stoichiometry of the HMGB1-P2-1 interaction predicted by ClusPro protein-protein docking (Additional file 1: Fig. S2), we applied a 1:1 interaction algorithm to determine the association rate constant (ka), dissociation rate constant (kd), and equilibrium dissociation constant (KD) from three independent experiments (n = 3 technical replicates). […]
interaction between high mobility group box 1 (HMGB1) and P2- 1. SPR plots showing the interaction between immobilized HMGB1 and different concentrations of the P2- 1 analyte. Experimental binding responses (blue, purple, and yellow traces) are shown with their corresponding global fits (black curves) via a 1:1 interaction model. The associated table summarizes the globally fitted kinetic parameters, including the maximum b inding capacity (Bmax), association rat e constant (ka), dissociation rat e con stant (kd), and other goodness-of-fit metrics (Chi2). The relatively low Chi2 value indicated a good fit bet ween
(§1) (1 picture or pasted object on this page, not shown here)

Experiment [2] relates to Differentiated human macrophages. The experiment can be described thus: HMGB1-induced macrophage death, LDH release. To be noted: 16 h, percentage of maximal release (2% Triton X-100) per method, individual replicates. Also noted: key: % of maximal LDH release (2% Triton X-100). It counts as cell-based. The protocol: Human macrophage differentiation and treatment
Human PBMCs were differentiated into macrophages by culturing in human macrophage colony-stimulating factor (M-CSF, 20 ng/ml) for 5 – 6 d. Differentiated macrophages were maintained in Dulbecco’s modified Eagle’s medium supplemented with 1% penicillin/streptomycin and 10% human serum. Upon reaching 70 – 80% conflu ence, adh erent cells were wash ed and switched to Opti-MEM I before stimulation with recombinant HMGB1 (0.5 µg/ml) with or without P2- 1 (5.0 or 10 µg/ml) for 16 […]
Cell viability was assessed via the tryp an blue excl usion and lactat e dehyd ro genase (LDH) release method as previously described . For trypan blue exclusion, random phase-contr ast images were captur ed , and the percentage of nonviable, trypan blue-stained cells was calculated. LDH release in the culture medium was quantified with an LDH Ass ay Kit (Cat. #L7572, Pointe Scientific Inc., Canton, MI, USA) according to the manufacturer ’s instructions. Optical density was measured at 340 nm, and LDH content was expressed as a per centag e of maximal release in the presence of 2% Triton X-100. The experiments were performed 5 – 7 times ( n= 5 –7 biological replicates). […]

The subject of experiment [3] is pCTS-L secretion from human PBMCs. The experiment can be described thus: HMGB1-induced pCTS-L secretion by PBMCs, Western blotting. It is filed as cell-based. To be noted: 16 h; for pCTS-L release: densitometry. On the procedure: Human blood was purchased from the New York Blood Center (Long Island City, NY, USA), and PBMCs were isolated via density gradient centrifugation through Ficoll (Ficoll-Paque PLUS) as previously described. PBMCs were cultured in RPMI-1640 supplemented with 10% human serum, 2 mmol/L L-glutamine, 100 U/ml penicillin, and 100 µg/ml streptomycin (all from Invitrogen, Carlsbad, CA, USA). For experiments, PBMCs were stimulated with recombinant HMGB1 (0.5 or 2.0 µg/ml) for 16 h, either alone or in combination with P2-1 at 5.0 or 10.0 µg/ml. Cell-free supernatants were collected for analysis of cytokine/chemokine levels via cytokine antibody arrays, or pCTS-L levels via Western blotting analysis as previously described.
Cell-conditioned medium from human PBMC cultures was collected and concentrated via Amicon Ultra Centrifugal Filters with a 10 kD molecular weight cutoff (Cat. #UFC801096, MilliporeSigma, Burlington, MA, USA). Equal volumes of conditioned medium, representing equivalent numbers of cells, were resolved on sodium dodecyl sulfate-polyacrylamide gels and transferred to polyvinylidene difluoride membranes. After being blocked with 5% nonfat milk in Tris-buffered saline with 0.1% Tween 20, the membranes were probed with a homemade primary monoclonal antibody against pCTS-L (e.g., mAb2, 1:1000) overnight as previously described. After washing, the membranes were incubated with a horseradish peroxidase-conjugated secondary antibody. The protein bands were visualized using enhanced chemiluminescence substrate (Pierce) and detected via a chemiluminescence imaging system (e.g., Bio-Rad ChemiDoc MP). The relative levels of specific proteins were determined using the UN-SCAN-IT gel analysis software version 7.1 (Silk Scientific Inc., Orem, UT, USA) and expressed in arbitrary units (AU). The experiments were performed in quadruplicate (n = 4 biological replicates).
Fig. S9 Full Western blotting analysis of the effect of P2- 1 on HMGB1- induced pCTS-L release in human PBMCs. Human PBMCs were stimulated with HMGB1 (0.5 µ g/ml) in th e abs ence or p resen ce of P2-1 (5.0 or 10.0 µg/ml) for 16 h, and the levels of pCTS-L in the cell-conditioned medium were determined by Western blotting, with sample loading normalized by volume of culture medium conditioned by an equivalent number of cells. Representative Western blotting images showing the dose-dependent […]
human PBMCs. HMGB1 high mobility group box 1, pCTS -L procathepisn L , PBMCs PBMCs peripheral […]
as §1

With `CCCC[C@H](NC(=O)[C@H](Cc1c[nH]cn1)NC(=O)[C@@H](NC(=O)[C@H](CCCCN)NC(=O)[C@@H](N)[C@@H](C)O)C(C)C)C(=O)N[C@@H](CCCCN)C(=O)N[C@@H](CO)C(=O)N[C@@H](Cc1ccccc1)C(=O)N[C@@H](CC(C)C)C(=O)N[C@@H](C)C(=O)N[C@@H](Cc1ccccc1)C(=O)N[C@@H](CCC(N)=O)C(=O)N[C@H](C(=O)N[C@@H](CCCCN)C(=O)N[C@H](C(=O)O)[C@@H](C)O)[C@@H](C)O` [P2-1] (HELM PEPTIDE1{T.K.V.H.[Nle].K.S.F.L.A.F.Q.T.K.T}$$$$V2.0; N-terminus and C-terminus assumed), the values for the KD in experiment [1] (Exp 1), in experiment [1] (Exp 2) and in experiment [1] (Exp 3) were 14.8 nM, 33.5 nM and 2.3 nM, respectively. Further, the LDH release in experiment [2] (HMGB1 0.5 µg/ml + P2-1 5.0 μg/ml) is 2.7008 and 6.752 and 2.4476 and 4.642 and 0.844 and 5.6548; in experiment [2] (HMGB1 0.5 µg/ml + P2-1 10.0 μg/ml) it was 1.0128 and 2.532 and 6.752 and 3.376 and 5.4016 and 2.6164 and 1.1816. In addition, the pCTS-L release in experiment [3] (HMGB1 (0.5) + P2-1 5.0 μg/ml, individual replicates) was 1.2 and 4 and 3.2 and 2.1; in experiment [3] (HMGB1 (0.5) + P2-1 10.0 μg/ml, individual replicates), 0.4 and 0.7 and 1.9 and 1.1; in experiment [3] (HMGB1 (2.0) + P2-1 5.0 μg/ml, single value) it was 4.8; in experiment [3] (HMGB1 (2.0) + P2-1 10.0 μg/ml, single value) it was 1.6. Also, the “HMGB1-induced pCTS-L secretion, in words” value in experiment [3] (P2-1 5.0 or 10.0 µg/ml) is “striking and dose-dependent suppression of HMGB1-induced pCTS-L secretion”.
